The values that follow come from patent US20140287918A1, “USE OF PEUMUS BOLDUS EXTRACT OBTAINED BY MEANS OF IN VIVO CULTURE AND HAVING ANTI-BOTRYTIS, ALLELOPATHIC AND ANTIOXIDANT ACTIVITY” (UNIVERSIDAD DE SANTIAGO DE CHILE, priority 2011, published 2014).

The nature of the assay: antioxidant capacity (scavenging of free radical DPPH). Particulars: main component of the extract. An excerpt: The extract was obtained by sonication in ethanol 85% at a ratio of 1 g of tissue in 10 volumes of solvent.

In brackets after ≈: the same amount, converted by molar mass.

Consider `COc1cc(C(=O)O)cc(OC)c1O` [syringic acid], for which the “EC50 (antioxidant capacity)” value was 170 µg/mL (≈ 858 µM).
